We go through 17 compounds from patent US10377743B2, “Inhibitors of RAS and methods of use thereof” (Araxes Pharma LLC, priority 2016, dated 2019).

This test has as its target T1, KRAS G12C 1-169, his-tagged protein, GDP-loaded (Homo sapiens, UniProt P01116, G12C).
T1 construct: KRAS G12C 1-169, his-tagged protein, GDP-loaded
Nature of the test: Biochemical assay: covalent binding (modification %) to KRAS G12C by mass spectrometry. Conditions: 2 hour incubation period, 8 μM compound (compounds 21-92).
For `C=CC(=O)N1CC(N2Cc3ccc(C(=O)N4CCC(N(C)C)C4)cc3C2=O)C1` (centres unmarked) [Compound 76, 2-(1-acryloylazetidin-3-yl)-6-(3-(dimethylamino)pyrrolidine-1-carbonyl)isoindolin-1-one], the Binding % result is on record as “+ (+ indicates binding activity up to 10%)”. Turning to `C=CC(=O)N1CC(N2Cc3c(C(N)=O)cc(-c4c(C)ccc5[nH]ncc45)cc3C2=O)C1` [Compound 77, 2-(1-acryloylazetidin-3-yl)-6-(5-methyl-1H-indazol-4-yl)-1-oxoisoindoline-4-carboxamide], the Binding % entry is listed as “+ (+ indicates binding activity up to 10%)”. Turning to `C=CC(=O)N1CC(N2Cc3ccc(N4CCCC(N(C)C)C4)cc3C2=O)C1` (centres unmarked) [Compound 78, 2-(1-acryloylazetidin-3-yl)-6-(3-(dimethylamino)piperidin-1-yl)isoindolin-1-one], the Binding % entry is “+ (+ indicates binding activity up to 10%)”. The same measure for `C=CC(=O)N1CC(N2Cc3ccc(C(=O)N4CCC(N)C4)cc3C2=O)C1` (centres unmarked) [Compound 79, 2-(1-acryloylazetidin-3-yl)-6-(3-aminopyrrolidine-1-carbonyl)isoindolin-1-one]: “+ (+ indicates binding activity up to 10%)”; for `C=CC(=O)N1CC(N2Cc3ccc(-c4ccc(C#N)cc4)cc3C2=O)C1` [Compound 80, 4-(2-(1-acryloylazetidin-3-yl)-3-oxoisoindolin-5-yl)benzonitrile]: “+ (+ indicates binding activity up to 10%)”; for `C=CC(=O)N1CC(N2Cc3ccc(-c4ccc(C(N)=O)cc4)cc3C2=O)C1` [Compound 81, 4-(2-(1-acryloylazetidin-3-yl)-3-oxoisoindolin-5-yl)benzamide]: “+ (+ indicates binding activity up to 10%)”.

For the compound `C=CC(=O)N1CC(N2Cc3ccc(-c4cc(O)cc5ccccc45)nc3C2=O)C1` [Compound 82, 6-(1-acryloylazetidin-3-yl)-2-(3-hydroxynaphthalen-1-yl)-5,6-dihydro-7H-pyrrolo[3,4-b]pyridin-7-one], the Binding % result is “+ (+ indicates binding activity up to 10%)”. Regarding `C=CC(=O)N1CC(N2Cc3c(C(N)=O)cc(-c4c(O)cccc4F)cc3C2=O)C1` [Compound 83, 2-(1-acryloylazetidin-3-yl)-6-(2-fluoro-6-hydroxyphenyl)-1-oxoisoindoline-4-carboxamide], the Binding % result is given as “+ (+ indicates binding activity up to 10%)”. In the case of `C=CC(=O)N1CC(N2Cc3ccc(C(=O)Nc4cn[nH]c4)cc3C2=O)C1` [Compound 84, 2-(1-acryloylazetidin-3-yl)-3-oxo-N-(1H-pyrazol-4-yl)isoindoline-5-carboxamide], the Binding % result was “+ (+ indicates binding activity up to 10%)”. Regarding `C=CC(=O)N1CCC(N2Cc3c(C(N)=O)cc(-c4c(C)ccc5[nH]ncc45)cc3C2=O)C1` (centres unmarked) [Compound 85, 2-(1-acryloylpyrrolidin-3-yl)-6-(5-methyl-1H-indazol-4-yl)-1-oxoisoindoline-4-carboxamide], the Binding % result was “+ (+ indicates binding activity up to 10%)”. In the case of `C=CC(=O)N1CC(N2Cc3ccc(NC(=O)c4cn[nH]c4)cc3C2=O)C1` [Compound 86, N-(2-(1-acryloylazetidin-3-yl)-3-oxoisoindolin-5-yl)-1H-pyrazole-4-carboxamide], the Binding % result is given as “+ (+ indicates binding activity up to 10%)”. On to `C=CC(=O)N1CC(N2Cc3ccc(-c4c(C)ccc5[nH]ncc45)nc3C2=O)C1` [Compound 87, 6-(1-acryloylazetidin-3-yl)-2-(5-methyl-1H-indazol-4-yl)-5,6-dihydro-7H-pyrrolo[3,4-b]pyridin-7-one], for which the Binding % entry is recorded as “+ (+ indicates binding activity up to 10%)”. The same measure for `C=CC(=O)N1CC(N2Cc3ccc(-c4nc(N)ncc4C)cc3C2=O)C1` [Compound 88, 2-(1-acryloylazetidin-3-yl)-6-(2-amino-5-methylpyrimidin-4-yl)isoindolin-1-one]: “+ (+ indicates binding activity up to 10%)”; for `C=CC(=O)N1CC(N2Cc3c(C#N)cc(-c4c(C)ccc5[nH]ncc45)cc3C2=O)C1` [Compound 89, 2-(1-acryloylazetidin-3-yl)-6-(5-methyl-1H-indazol-4-yl)-1-oxoisoindoline-4-carbonitrile]: “+ (+ indicates binding activity up to 10%)”; for `C=CC(=O)N1CC(N2Cc3ccc(-c4ccc(O)nc4)cc3C2=O)C1` [Compound 90, 2-(1-acryloylazetidin-3-yl)-6-(6-hydroxypyridin-3-yl)isoindolin-1-one]: “+ (+ indicates binding activity up to 10%)”. On to `C=CC(=O)N1CCC(N2Cc3c(C(N)=O)cc(-c4c(O)cccc4F)cc3C2=O)C1` (centres unmarked) [Compound 91, 2-(1-acryloylpyrrolidin-3-yl)-6-(2-fluoro-6-hydroxyphenyl)-1-oxoisoindoline-4-carboxamide], for which the Binding % result was “+ (+ indicates binding activity up to 10%)”. As to `C=CC(=O)N1CC(N2Cc3c(OC)cc(-c4c(C)ccc5[nH]ncc45)cc3C2=O)C1` [Compound 92, 2-(1-acryloylazetidin-3-yl)-4-methoxy-6-(5-methyl-1H-indazol-4-yl)isoindolin-1-one], the Binding % result is given as “++ (++ indicates binding activity from 10 to 50%)”.
